Measurements reported in patent EP2818471A1, “Nitrogen bicyclic compounds as inhibitors for Scyl1 and Grk5” (Max-Planck-Gesellschaft zur Förderung der Wissenschaften …, priority 2013, dated 2014).

How the values were obtained:
full length Grk5 = target: T1, full length Grk5 (Homo sapiens, UniProt P34947); assay: GRK5 kinase activity assay (ADP Glo Kinase Assay); assay type: biochemical; conditions: Table 5
T1 construct: 2 µl 6/2 fold concentrated full length Grk5 (Millipore, #14-714) in reaction buffer is added to each well; purchased Millipore 14-714
Experimental: Increasing concentrations of GRK5 are incubated together with 100 µM ATP in the absence and presence of 10 µM casein in a reaction buffer. Within this incubation non-phosphorylated casein is converted into phosphorylated casein and ATP is converted into ADP. Thereafter nonconverted ATP is digested into AMP by addition of the ADP-Glo™Reagent. Subsequently the ADP that is produced by GRK5 activity is phosphorylated back to ATP by addition of Promega Kinase Detection Reagent. These ATP levels serve as measure for the GRK5 activity and are quantified by a luciferase/luciferin reaction.
Km(ATP) was determined by measuring the GRK5 activity at increasing ATP concentrations.
The reaction buffer used was composed of: 20 mM MES pH 6.0, 1 mM DTT, 10 mM MgCl2, 0.01 % Tween20 and the reaction volume was 6µl.
Firstly 4 µl 6/4 fold concentrated substrate and 6/4 fold concentrated ATP in 1 fold concentrated reaction buffer are added to each well of the assay plate. Subsequently 67 nl 1000 fold concentrated test compound in 100 % DMSO are added to each well except to C- and C+ wells using pin tool. Then 67 nl 100 % DMSO are pipetted to C- (no kinase, no compound) and C+ (no compound) wells using pin-tool and 2 µl reaction buffer are added to C- wells. […] Finally, after incubation for 40 min at room temperature the luminescence intensity was measured. […]

[1] = target: T2, full length human Scyl1 (1-808) protein (Homo sapiens, UniProt Q96KG9); assay: SCYL1 reporter probe displacement assay; assay type: binding
T2 construct: The target enzyme used was the full length human Scyl1 (1-808) protein
T2 sequence (Q96KG9 1-808): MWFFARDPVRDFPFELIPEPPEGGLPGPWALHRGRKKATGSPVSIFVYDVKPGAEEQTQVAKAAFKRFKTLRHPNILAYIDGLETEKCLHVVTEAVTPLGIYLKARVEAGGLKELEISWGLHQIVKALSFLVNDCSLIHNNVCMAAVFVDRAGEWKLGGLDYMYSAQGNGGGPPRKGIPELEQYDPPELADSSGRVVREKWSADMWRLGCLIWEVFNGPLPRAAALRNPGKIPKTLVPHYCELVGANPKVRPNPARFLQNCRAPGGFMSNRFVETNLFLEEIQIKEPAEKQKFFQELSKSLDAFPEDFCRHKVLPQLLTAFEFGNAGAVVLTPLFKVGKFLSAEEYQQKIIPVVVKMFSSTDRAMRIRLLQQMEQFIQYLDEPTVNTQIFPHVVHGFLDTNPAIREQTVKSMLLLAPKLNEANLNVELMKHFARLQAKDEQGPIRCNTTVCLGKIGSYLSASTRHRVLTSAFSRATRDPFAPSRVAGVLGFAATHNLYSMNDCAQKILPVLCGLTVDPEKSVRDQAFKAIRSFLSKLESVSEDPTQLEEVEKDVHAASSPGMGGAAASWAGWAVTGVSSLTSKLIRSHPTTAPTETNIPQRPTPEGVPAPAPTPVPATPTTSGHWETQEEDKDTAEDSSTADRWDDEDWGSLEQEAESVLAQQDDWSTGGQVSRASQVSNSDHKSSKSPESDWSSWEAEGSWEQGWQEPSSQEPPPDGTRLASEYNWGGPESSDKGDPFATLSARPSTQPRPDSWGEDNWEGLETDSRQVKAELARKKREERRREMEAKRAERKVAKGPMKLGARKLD
Experimental: The reporter displacement assay is based on reporter probe (PRO16, Proteros GmbH) that is designed to bind to ATP-binding site of SCYL1 (Methods in Enzymology, 2011, vol. 493, p. 300-319). The proximity between reporter probe and target protein (SCYL1) results in the emission of an optical signal. Test compounds that bind to the same site as the reporter probe displace the probe, causing signal diminution. The rate of reporter probe displacement is measured over time after addition of test compounds at various concentrations.
For Kd determination, percent reporter probe displacement values are calculated for the last time point, at which the system has reached equilibrium. For each compound concentration percent probe displacement values are calculated and plotted against the compound concentration. IC50-like values (corresponding to 50% probe displacement) are calculated using standard fitting algorithms. […] Thus, according to the Cheng Prusoff equation, the Kd value of test compounds can be calculated with Kd = ½ IC50. […]
Probe displacement was calculated in relation to the C+(positive) and C-(negative) controls. The signal reflecting 0% probe displacement (C+) was measured in the absence of test compound, while the signal representing 100% probe displacement (C-) was measured in the absence of Scyl1. […]

T1 sequence (P34947 whole entry): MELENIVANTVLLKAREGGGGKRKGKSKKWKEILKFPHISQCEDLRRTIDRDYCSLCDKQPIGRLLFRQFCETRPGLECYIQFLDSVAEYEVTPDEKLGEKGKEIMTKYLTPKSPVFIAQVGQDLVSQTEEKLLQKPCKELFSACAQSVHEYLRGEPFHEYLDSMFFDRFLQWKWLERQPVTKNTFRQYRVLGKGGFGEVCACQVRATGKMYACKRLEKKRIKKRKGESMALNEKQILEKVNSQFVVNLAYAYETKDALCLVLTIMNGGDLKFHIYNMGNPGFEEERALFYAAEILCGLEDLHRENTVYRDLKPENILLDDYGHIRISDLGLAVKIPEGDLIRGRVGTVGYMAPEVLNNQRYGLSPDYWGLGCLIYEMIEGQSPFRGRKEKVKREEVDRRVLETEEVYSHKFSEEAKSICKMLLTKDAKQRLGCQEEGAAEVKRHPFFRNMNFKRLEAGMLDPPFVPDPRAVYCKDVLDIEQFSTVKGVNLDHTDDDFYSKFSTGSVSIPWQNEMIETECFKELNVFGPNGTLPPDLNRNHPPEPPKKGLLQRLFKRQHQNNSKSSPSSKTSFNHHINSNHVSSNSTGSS

IC50 (full length Grk5) [µM]	IC50 ([1]; Scyl1 probe displacement) [µM]	Inh. ([1]; probe displacement, primary screen) [%]	Structure (SMILES)
20 to 80	–	–	NC(=O)c1ccc(-c2cnc3ccc(Cc4ccc(F)cc4)nn23)cc1 [compound 1, 4-[6-[(4-fluorophenyl)methyl]imidazo[1,2-b]pyridazin-3-yl]benzamide]
–	0.5	100	COc1cc(-c2ccc3ncc(-c4cccnc4)n3n2)cc(OC)c1OC [compound 10, 3-(3-pyridyl)-6-(3,4,5-trimethoxyphenyl)imidazo[1,2-b]pyridazine]
